Active and inactive are the calls of the source. The rule behind the calls is not given here.
How the values were obtained:
Monoglyceride lipase [1] = target: T1, Monoglyceride lipase (Homo sapiens, UniProt Q99685); experiment: Inhibition of MAGL (unknown origin)
T1 sequence (Q99685 whole entry): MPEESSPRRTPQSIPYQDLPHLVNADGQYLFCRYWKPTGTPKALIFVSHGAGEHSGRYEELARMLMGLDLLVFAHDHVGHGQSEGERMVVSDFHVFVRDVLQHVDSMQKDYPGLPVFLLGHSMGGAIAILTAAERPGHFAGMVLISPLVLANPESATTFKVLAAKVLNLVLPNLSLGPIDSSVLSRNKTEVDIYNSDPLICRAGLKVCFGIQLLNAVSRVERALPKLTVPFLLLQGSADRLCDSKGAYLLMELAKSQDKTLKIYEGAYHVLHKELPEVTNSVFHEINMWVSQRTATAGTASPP

Monoglyceride lipase [2] = target: T2, Monoglyceride lipase (Rattus norvegicus, UniProt Q8R431); experiment: Inhibition of recombinant rat MAGL by LC-MS analysis
T2 sequence (Q8R431 whole entry): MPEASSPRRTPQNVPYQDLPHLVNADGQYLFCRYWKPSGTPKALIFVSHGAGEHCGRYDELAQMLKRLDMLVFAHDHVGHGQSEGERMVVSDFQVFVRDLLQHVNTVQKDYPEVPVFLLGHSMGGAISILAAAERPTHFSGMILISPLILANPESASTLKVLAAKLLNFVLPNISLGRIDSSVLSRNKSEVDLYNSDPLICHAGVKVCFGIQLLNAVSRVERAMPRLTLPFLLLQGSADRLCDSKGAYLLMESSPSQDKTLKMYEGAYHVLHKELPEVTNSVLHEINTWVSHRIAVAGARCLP

[3] = target: T3, Monoglyceride lipase (Mus musculus) (UniProt O35678); experiment: Inhibition of MAGL in mouse RAW264.7 cells assessed as increase in 2-AG level at 30 uM; format: cell-based
T3 sequence (whole entry): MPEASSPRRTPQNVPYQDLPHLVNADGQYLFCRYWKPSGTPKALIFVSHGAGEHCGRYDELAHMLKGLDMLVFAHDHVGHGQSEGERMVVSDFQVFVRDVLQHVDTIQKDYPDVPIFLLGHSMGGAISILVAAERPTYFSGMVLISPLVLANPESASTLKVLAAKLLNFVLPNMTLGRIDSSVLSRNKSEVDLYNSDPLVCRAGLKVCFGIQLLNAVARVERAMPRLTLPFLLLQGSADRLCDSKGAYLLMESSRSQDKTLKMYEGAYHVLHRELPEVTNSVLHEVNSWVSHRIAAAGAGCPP

RAW264.7 [4] = experiment: Antiinflammatory activity in mouse RAW264.7 cells assessed as reduction in LPS-induced IL-1beta mRNA expression measured after 24 hrs by RT-PCR analysis; format: functional, cell-based; conditions: dose 20-40 µM
Monoglyceride lipase [5] = target: T1, Monoglyceride lipase; experiment: Binding affinity to MAGL (unknown origin) by SPR analysis
[6] = target: T4, Monoglyceride lipase (Homo sapiens) (UniProt Q99685); experiment: Reversible inhibition of MAGL (unknown origin)
T4 sequence (whole entry): T1 sequence (Q99685 whole entry)

RAW264.7 [7] = experiment: Antiinflammatory activity in mouse RAW264.7 cells assessed as reduction in LPS-induced IL-6 mRNA expression measured after 24 hrs by RT-PCR analysis; format: functional, cell-based; conditions: dose 20-40 µM
RAW264.7 [8] = experiment: Antiinflammatory activity in mouse RAW264.7 cells assessed as reduction in LPS-induced CCL-2 mRNA expression measured after 24 hrs by RT-PCR analysis; format: functional, cell-based; conditions: dose 20-40 µM
[9] = target: T4, Monoglyceride lipase (Homo sapiens); experiment: Inhibition of MAGL (unknown origin) in presence of DTT

O=C(C1CCCN(c2nc3ncccc3s2)C1)N1CCN(Cc2ccc3c(c2)OCO3)CC1 (configuration not stated)
IC50 (Monoglyceride lipase [1]): > 33300 nM

O=C(C1CCN(c2nc3ncccc3s2)CC1)N1CCN(Cc2ccc3c(c2)OCO3)CC1
IC50 (Monoglyceride lipase [1]): > 33300 nM

O=C(c1ccc2nc(N3CCCCC3)sc2c1)N1CCN(c2ccccn2)CC1
IC50 (Monoglyceride lipase [1]): > 33300 nM

COC(=O)[C@]1(C)CC[C@]2(C)CC[C@]3(C)C4=CC=C5C(=CC(=O)C(O)=C5C)[C@]4(C)CC[C@@]3(C)[C@@H]2C1 [PRISTIMERIN]
IC50 (Monoglyceride lipase [2]): 93 nM

CC1CCN(c2nc3ccc(C(=O)N4CCN(Cc5ccccc5)CC4)cc3s2)CC1
IC50 (Monoglyceride lipase [1]): 2870 nM

COc1ccc(N2CCN(C(=O)c3ccc4nc(N5CCC(C)CC5)sc4c3)CC2)cc1
inhibition [3]: Active
IC50 (Monoglyceride lipase [1]): 2840 nM
Activity (RAW264.7 [4]): Dose-Dependent Effect
Kd (Monoglyceride lipase [5]): 710 nM
inhibition [6]: Active
Activity (RAW264.7 [7]): Dose-Dependent Effect
Activity (RAW264.7 [8]): Dose-Dependent Effect
inhibition [9]: Active

Cc1ccc(Cl)cc1N1CCN(C(=O)c2ccc3nc(N4CCC(C)CC4)sc3c2)CC1
IC50 (Monoglyceride lipase [1]): 5800 nM

CC(C)=CCC[C@@H](C)[C@@H]1CC[C@]2(C)C3=C(CC[C@@]12C)[C@@]1(C)CC[C@H](O)C(C)(C)[C@@H]1CC3 [EUPHOL]
IC50 (Monoglyceride lipase [2]): 315 nM

COc1cc(N2CCN(C(=O)c3ccc4nc(N5CCC(C)CC5)sc4c3)CC2)cc(OC)c1OC
IC50 (Monoglyceride lipase [1]): > 33300 nM

COc1cccc(N2CCN(C(=O)c3ccc4nc(N5CCC(C)CC5)sc4c3)CC2)c1
IC50 (Monoglyceride lipase [1]): 6580 nM
